Data from ChEMBL document CHEMBL1154105, “Optimization of peptide-based inhibitors of prostate-specific antigen (PSA) as targeted imaging agents for prostate cancer” (Bioorg Med Chem, 2009).
Starred links: 1 amine or outer side, 2 acyl side, 3 side chain; linkers in the order of their positions; H or OH if unused. Non-standard residues stand in square brackets, D forms with d. Residues, ends and D or L forms follow the SMILES beside them. *: point of attachment. Ala(imidazol-2-yl) = N[C@@H](Cc1ncc[nH]1)C(=O)O; X2 = C[C@@H](C(=O)[*:2])N(c1ccc2ccccc2c1)[*:1]; Phe(4-Br) = N[C@@H](Cc1ccc(Br)cc1)C(=O)O; N(cHex)Ala = C[C@H](NC1CCCCC1)C(=O)O; Pro(3R-OH) = O=C(O)[C@H]1NCC[C@H]1O; hIle = CC[C@H](C)C[C@H](N)C(=O)O; Met(O) = CS(=O)CC[C@H](N)C(=O)O; boroLeu = CC(C)C[C@H](N*)B(O)O; NPhGly = O=C(O)CNc1ccccc1; Cbz = O=C(OCc1ccccc1)*; tBu = CC(C)(C)*

Tested on: not listed separately
Experiment: Selectivity ratio of Ki for chymotrypsin to Ki for prostate-specific antigen
Settings: Prostate gland

Q: Which Ratio Ki does the source give for CC(C)C[C@H](NC(=O)[C@H](CC(C)C)NC(=O)[C@H](CCCCN)NC(=O)[C@H](CO)NC(=O)[C@H](CO)NC(=O)OCc1ccccc1)B(O)O (Cbz-SSKL-boroLeu) here?
A: 60

Target: T1, Prostate-specific antigen (Homo sapiens, UniProt P07288);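 note: Fluorescence-based readout of substrate cleavage by prostate-specific antigen, used to gauge enzyme inhibition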
T1 sequence (P07288 whole entry): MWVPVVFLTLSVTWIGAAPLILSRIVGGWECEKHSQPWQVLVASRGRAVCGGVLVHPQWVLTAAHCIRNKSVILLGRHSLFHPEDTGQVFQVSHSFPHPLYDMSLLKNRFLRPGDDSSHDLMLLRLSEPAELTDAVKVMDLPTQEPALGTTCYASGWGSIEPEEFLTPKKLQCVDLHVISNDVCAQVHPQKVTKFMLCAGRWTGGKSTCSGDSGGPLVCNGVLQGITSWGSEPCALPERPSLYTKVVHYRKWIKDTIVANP
Experiment: biochemical
Assay type: tissue-based, Prostate gland
Settings: not given

Q: Which Ki does the source give for CC(C)C[C@@H](C=O)NC(=O)[C@H](CC(C)C)NC(=O)[C@H](CCC(=O)O)NC(=O)[C@H](CO)NC(=O)[C@H](CO)NC(=O)OCc1ccccc1 (Cbz-SSELL-aldehyde) here?
A: > 1000 µM

Q: For CC(C)C[C@@H](C=O)NC(=O)[C@H](CC(C)C)NC(=O)CNC(=O)[C@H](CO)NC(=O)[C@H](CO)NC(=O)OCc1ccccc1 (Cbz-SSGLL-aldehyde), which Ki is on record?
A: > 1000 µM

Q: Which Ki does the source give for CC(C)C[C@@H](C=O)NC(=O)[C@H](C)NC(=O)[C@H](CCCCN)NC(=O)[C@H](CO)NC(=O)[C@H](CO)NC(=O)OCc1ccccc1 (Cbz-SSKAL-aldehyde) here?
A: > 100 µM

Q: With CC(C)C[C@@H](C=O)NC(=O)[C@H](CSC(C)(C)C)NC(=O)[C@H](CCCCN)NC(=O)[C@H](CO)NC(=O)[C@H](CO)NC(=O)OCc1ccccc1 (Cbz-SSKC(tBu)L-aldehyde) as the molecule, how does the Ki read?
A: > 50 µM

Q: Which Ki does the source give for CC(C)C[C@@H](C=O)NC(=O)[C@H](CC(=O)O)NC(=O)[C@H](CCCCN)NC(=O)[C@H](CO)NC(=O)[C@H](CO)NC(=O)OCc1ccccc1 (Cbz-SSKDL-aldehyde) here?
A: > 1000 µM

Q: Which Ki does the source give for CC(C)C[C@@H](C=O)NC(=O)CNC(=O)[C@H](CCCCN)NC(=O)[C@H](CO)NC(=O)[C@H](CO)NC(=O)OCc1ccccc1 (Cbz-SSKGL-aldehyde) here?
A: > 1000 µM

Q: For CC(C)C[C@@H](C=O)NC(=O)[C@H](CCCCN)NC(=O)[C@H](CCCCN)NC(=O)[C@H](CO)NC(=O)[C@H](CO)NC(=O)OCc1ccccc1 (Cbz-SSKKL-aldehyde), which Ki is on record?
A: > 50 µM

Q: For CC(C)C[C@@H](C=O)NC(=O)[C@@H]1CCCN1C(=O)[C@H](CCCCN)NC(=O)[C@H](CO)NC(=O)[C@H](CO)NC(=O)OCc1ccccc1 (Cbz-SSKPL-aldehyde), which Ki is on record?
A: > 500 µM

Q: Which Ki does the source give for CC(C)C[C@@H](C=O)NC(=O)[C@H](CCC(N)=O)NC(=O)[C@H](CCCCN)NC(=O)[C@H](CO)NC(=O)[C@H](CO)NC(=O)OCc1ccccc1 (Cbz-SSKQL-aldehyde) here?
A: 21.8 µM

Q: For CC(C)C[C@@H](C=O)NC(=O)[C@H](CO)NC(=O)[C@H](CCCCN)NC(=O)[C@H](CO)NC(=O)[C@H](CO)NC(=O)OCc1ccccc1 (Cbz-SSKSL-aldehyde), which Ki is on record?
A: > 50 µM

Q: With CC(C)C[C@@H](C=O)NC(=O)[C@@H](NC(=O)[C@H](CCCCN)NC(=O)[C@H](CO)NC(=O)[C@H](CO)NC(=O)OCc1ccccc1)C(C)C (Cbz-SSKVL-aldehyde) as the molecule, how does the Ki read?
A: > 50 µM

Q: With CC(C)C[C@@H](C=O)NC(=O)[C@H](Cc1ncc[nH]1)NC(=O)[C@H](CCCCN)NC(=O)[C@H](CO)NC(=O)[C@H](CO)NC(=O)OCc1ccccc1 (Cbz-SSK[Ala(imidazol-2-yl)]L-aldehyde) as the molecule, how does the Ki read?
A: 18.6 µM

Q: For CC(C)C[C@@H](C=O)NC(=O)[C@H](C)N(C(=O)[C@H](CCCCN)NC(=O)[C@H](CO)NC(=O)[C@H](CO)NC(=O)OCc1ccccc1)C1CCCCC1 (Cbz-SSK[N(cHex)Ala]L-aldehyde), which Ki is on record?
A: > 50 µM

Q: For CC(C)C[C@@H](C=O)NC(=O)CN(C(=O)[C@H](CCCCN)NC(=O)[C@H](CO)NC(=O)[C@H](CO)NC(=O)OCc1ccccc1)c1ccccc1 (Cbz-SSK[NPhGly]L-aldehyde), which Ki is on record?
A: > 50 µM

Q: For CC(C)C[C@@H](C=O)NC(=O)[C@H](Cc1ccc(Br)cc1)NC(=O)[C@H](CCCCN)NC(=O)[C@H](CO)NC(=O)[C@H](CO)NC(=O)OCc1ccccc1 (Cbz-SSK[Phe(4-Br)]L-aldehyde), which Ki is on record?
A: > 500 µM

Q: For CC(C)C[C@@H](C=O)NC(=O)[C@@H]1[C@H](O)CCN1C(=O)[C@H](CCCCN)NC(=O)[C@H](CO)NC(=O)[C@H](CO)NC(=O)OCc1ccccc1 (Cbz-SSK[Pro(3R-OH)]L-aldehyde), which Ki is on record?
A: > 500 µM

Q: With CC(C)C[C@@H](C=O)NC(=O)[C@H](C)N(C(=O)[C@H](CCCCN)NC(=O)[C@H](CO)NC(=O)[C@H](CO)NC(=O)OCc1ccccc1)c1ccc2ccccc2c1 (Cbz-SSK[X2]L-aldehyde) as the molecule, how does the Ki read?
A: > 100 µM

Q: With CC[C@H](C)C[C@H](NC(=O)[C@H](CCCCN)NC(=O)[C@H](CO)NC(=O)[C@H](CO)NC(=O)OCc1ccccc1)C(=O)N[C@H](C=O)CC(C)C (Cbz-SSK[hIle]L-aldehyde) as the molecule, how does the Ki read?
A: 37.4 µM

Q: Which Ki does the source give for CSCC[C@H](NC(=O)[C@H](CO)NC(=O)[C@H](CO)NC(=O)OCc1ccccc1)C(=O)N[C@@H](CC(C)C)C(=O)N[C@H](C=O)CC(C)C (Cbz-SSMLL-aldehyde) here?
A: 7.5 µM

Q: For CC(C)C[C@@H](C=O)NC(=O)[C@H](CC(C)C)NC(=O)[C@H](CC(N)=O)NC(=O)[C@H](CO)NC(=O)[C@H](CO)NC(=O)OCc1ccccc1 (Cbz-SSNLL-aldehyde), which Ki is on record?
A: 18.2 µM

Q: Which Ki does the source give for CC(C)C[C@@H](C=O)NC(=O)[C@H](CC(C)C)NC(=O)[C@@H]1CCCN1C(=O)[C@H](CO)NC(=O)[C@H](CO)NC(=O)OCc1ccccc1 (Cbz-SSPLL-aldehyde) here?
A: > 1000 µM

Q: With CC(C)C[C@@H](C=O)NC(=O)[C@H](CC(C)C)NC(=O)[C@H](CCC(N)=O)NC(=O)[C@H](CO)NC(=O)[C@H](CO)NC(=O)OCc1ccccc1 (Cbz-SSQLL-aldehyde) as the molecule, how does the Ki read?
A: 3.9 µM

Q: For CC(C)C[C@@H](C=O)NC(=O)[C@H](CC(C)C)NC(=O)[C@@H](NC(=O)[C@H](CO)NC(=O)[C@H](CO)NC(=O)OCc1ccccc1)[C@@H](C)O (Cbz-SSTLL-aldehyde), which Ki is on record?
A: 43.8 µM

Q: Which Ki does the source give for CC(C)C[C@@H](C=O)NC(=O)[C@H](CC(C)C)NC(=O)[C@H](CC[S+](C)[O-])NC(=O)[C@H](CO)NC(=O)[C@H](CO)NC(=O)OCc1ccccc1 (stereo partly specified) (Cbz-SS[Met(O)]LL-aldehyde) here?
A: 25.9 µM

Q: For CC(C)C[C@@H](C=O)NC(=O)[C@H](CC(C)C)NC(=O)[C@H](C)N(C(=O)[C@H](CO)NC(=O)[C@H](CO)NC(=O)OCc1ccccc1)C1CCCCC1 (Cbz-SS[N(cHex)Ala]LL-aldehyde), which Ki is on record?
A: 13.1 µM
